Source: US11878050B2, “Glycoside hydrolases to treat biofilm-associated infections” (priority 2018, dated 2024)

Legend:
[1] = test system: bioluminescent P. aeruginosa; test: Antibiotic protection and infection clearance in vivo (IVIS); parameters: species or system mice
Description: Glycoside hydrolase and antibiotic treatments. Established infections were treated via topical application of vehicle control, heat-inactivated GH, antibiotic alone (or in combination with heat-inactivated GH), GH alone, or GH plus antibiotic (meropenem). Briefly, woundbeds were irrigated with a 10% α-amylase and cellulase (in a 1:1 combination) solution in three separate topical infusions with 30 minutes of dwell time for each, with or without antibiotics. Septicemia was determined by monitoring animals for signs of systemic illness (lethargy, loss of appetite, labored breathing, tremors), and moribund mice were euthanized via phenobarbital injection. […] In order to image dispersal in vivo, the inventors used a Lumina II XR In Vivo Imaging System (IVIS®). Mice with established wound infections were administered GH therapy, and imaging occurred immediately following treatment, and every 4-5 hours subsequently. For experiments involving systemic antibiotic therapy, peritoneal dosing of 300 mg/kg meropenem occurred 4 hours prior to, and 8 hours following GH treatment. […]
To test if concurrent systemic or topical antibiotics can protect against dispersal-mediated septicemia, 48-hour chronic wound infections comprised of bioluminescent P. aeruginosa were treated with 10% GH as above, and monitored via IVIS for systemic spread.

biofilms = conditions: cited from earlier work; for Summary (biofilm-disrupting ability): Table 1, literature
[2] = test system: S. aureus and P. aeruginosa biofilms; test: Lubbock Chronic Wound Biofilm Model (wound-like media); format: cell-based
Excerpt: Lubbock Chronic Wound Biofilm Model. The Lubbock Chronic Wound Biofilm Model, or Lubbock wound model (LWM), has been previously described [Sun Y, Dowd S E, Smith E, Rhoads D D, Wolcott R D. In vitro multispecies Lubbock chronic wound biofilm model. Wound Repair Regen. 2008; 16(6):805-13. Epub 2009/01/09. DeLeon S, Clinton A, Fowler H, Everett J, Horswill A R, Rumbaugh K P. Synergistic interactions of Pseudomonas aeruginosa and Staphylococcus aureus in an in vitro wound model. Infect Immun. 2014; 82(11):4718-28. Epub 2014/08/27. Dalton T, Dowd S E, Wolcott R D, Sun Y, Watters C, Griswold J A, et al. An in vivo polymicrobial biofilm wound infection model to study interspecies interactions. PLoS One. 2011; 6(11):e27317. Epub 2011/11/15, relevant portions incorporated herein by reference]. Briefly, wound-like media (50% bovine plasma, 45% Bolton broth, 5% laked horse blood) was inoculated with […] bacterial cells, and incubated for 48 hours, statically, at 37° C. […] Percent bacterial cell dispersal was calculated by finding the quotient of […]. Percent biomass degraded was calculated by rinsing to remove the post-treatment supernatant, weighing the remaining biomass, and finding the quotient of the post-treatment biofilm weight divided by the pre-treatment biofilm weight. […]

[3] = test system: S. aureus and P. aeruginosa biofilms; test: In vitro well-plate cell dispersal assay; format: cell-based; conditions: 5% GH solutions, 30 minutes, vs vehicle and heat-inactivated controls
Description: (§1) In vitro cell dispersal. To measure percent dispersal in vitro, the wells of a 24-well non-tissue culture treated plate (Falcon®) were inoculated with 1:100 dilutions of overnight cultures of S. aureus and P. aeruginosa, and biofilms were allowed to grow for 48 hours at 37° C., with shaking at 80 rpm. Following incubation, the supernatant was removed, and each well was gently rinsed with PBS to discard any non-attached biomass. Subsequently, wells were treated with enzyme solutions, vehicle, or heat-inactivated controls. Following treatment, the supernatant was removed and centrifuged at 11,000 rcf for 10 minutes in order to pellet the cells. Cell pellets were then re-suspended in PBS for CFU quantification. Biofilm remaining on the wells were dispersed via sonication and suspended in PBS for CFU quantification. Percent bacterial cell dispersal was calculated by finding the quotient of […].

[4] = test system: S. aureus and P. aeruginosa; test: Total CFU after GH treatment in vitro (bactericidal activity); format: cell-based; conditions: 5% GH solutions, 30 minutes
Description: as §1

[5] = test system: S. aureus and P. aeruginosa polymicrobial biofilms harvested from murine chronic wounds; test: Ex vivo treatment of murine chronic wound biofilms: biomass degraded; format: cell-based; conditions: 5% enzyme solutions, 1 hour
Excerpt: (§2) Murine chronic wound model. A murine chronic wound model has been previously described [Dalton T, Dowd S E, Wolcott R D, Sun Y, Watters C, Griswold J A, et al. An in vivo polymicrobial biofilm wound infection model to study interspecies interactions. PLoS One. 2011; 6(11):e27317. Epub 2011/11/15. Brown R L, Greenhalgh D G. Mouse models to study wound closure and topical treatment of infected wounds in healing-impaired and normal healing hosts. Wound Repair Regen. 1997; 5(2):198-204. Epub 1997/04/01. Rumbaugh K P, Diggle S P, Watters C M, Ross-Gillespie A, Griffin A S, West S A. Quorum sensing and the social evolution of bacterial virulence. Curr Biol. 2009; 19(4):341-5. Epub 2009/02/24, relevant portions incorporated herein by reference]. […] Percent dispersal, percent biomass degraded, and antibiotic tolerance were calculated as with the LWM, described above.
(§3) In order to determine if the results obtained in vitro translated to a more clinically relevant model, the inventors tested the ability of GH solutions to degrade the biomass of, and disperse the cells from, biofilms grown in vivo. […] For analysis of biomass degradation, the inventors measured the weights of the extracted wound-beds before and after treatment with GH, and compared the percent reduction in weight to that of biofilms treated with heat-inactivated GH. […]

[6] = test system: S. aureus and P. aeruginosa biofilms; test: Crystal violet biomass assay; format: cell-based
Description: Crystal violet assay. A traditional in vitro crystal violet (CV) biomass assay was performed by inoculating the wells of a 24-well non-tissue culture treated plate (Falcon®) containing 13 mm plastic cell culture coverslips with 1:100 dilutions of overnight cultures of S. aureus and P. aeruginosa in fresh LB broth, and allowing for 48 hours of growth at 37° C., with shaking at 80 rpm. Planktonic cells were then removed via rinsing with PBS, and the biofilm-coated coverslips were treated with enzyme solutions, vehicle, or heat-inactivated controls. After treatment, the coverslips were rinsed with ddH2O, and the remaining biomass was stained with 1% CV in ddH2O for 20 minutes. Coverslips were then rinsed once more with ddH2O and transferred to fresh wells, in which the CV was eluted in 95% ethanol for 1 hour. The eluted CV from treated vs. untreated samples was quantified via absorbance of 595 nm light in a Synergy H1 Hybrid Reader (Biotek®).

[7] = test system: S. aureus and P. aeruginosa polymicrobial biofilms harvested from murine chronic wounds; test: Ex vivo treatment of murine chronic wound biofilms: cell dispersal; format: cell-based; conditions: 5% enzyme solutions, 1 hour, vs vehicle and heat-inactivated controls
Excerpt: as §2, §3

C[C@@H](O)[C@H]1C(=O)N2C(C(=O)O)=C(S[C@@H]3CN[C@H](C(=O)N(C)C)C3)[C@H](C)[C@H]12 [meropenem]
protection against GH dispersal-induced dissemination ([1]; systemic meropenem (300 mg/kg) with 10% GH): prevented dissemination of P. aeruginosa | protection against GH dispersal-induced dissemination ([1]; topical meropenem (3 mg/ml) with 10% GH): prevented dissemination of P. aeruginosa

Hyaluronidase [reference compound]
Summary (biofilm-disrupting ability) (biofilms): against HA-containing biofilms, dispersal

gentamicin sulfate [reference compound]
cells remaining viable after gentamicin treatment ([2]; P. aeruginosa and S. aureus co-cultured in the LWM, gentamicin alone): approximately half

cellulase
percent dispersal [3]: significant amount of dispersal | total CFU (supernatant + biofilm), bactericidal activity [4]: no bactericidal activity | percent biomass degraded [5]: able to degrade | degradation of pre-formed biofilms (crystal violet) ([6]; 0.0025%, 10 minutes): significantly degraded | biomass of the biofilms (retention of crystal violet stain) ([6]; 0.25% GH solution, 30 minutes, 48 h biofilms): significant reduction in biomass | disassociation of biofilms cultured in wound-like media ([2]; 10%, 1 hour, 24-hour-old polymicrobial biofilms): completely disassociates | Summary (biofilm-disrupting ability) (biofilms): shown to cause the dispersal of S. aureus | biofilm inhibition / disruption in earlier studies (biofilms; literature): inhibits biofilm growth by Burkholderia cepacia and Pseudomonas aeruginosa | percent dispersal [7]: significantly more total cell dispersal
